Measured values as given in patent US7091351B2, “Vanadium compounds for treating cancer” (Parker Hughes Institute, priority 1998, dated 2006).

Key:
Assay type in all cases: cell-based, human
[1] = system: Ntera-2 testicular cancer cells; experiment: Flow cytometric TUNEL apoptosis assay, NTERA-2 cells; conditions: 24 h, TUNEL-positive nuclei
Procedure: (§1) A flow cytometric two-color terminal […] transferase (TdT)-mediated digoxigenin-uridine triphosphate (dUTP) nick-end labeling assay (TUNEL) was employed to detect apoptotic nuclei. Gavrieli, Y., Sherman, Y., Ben-Sasson, S. A. Identification of programmed cell death in situ via specific labeling of nuclear DNA fragmentation. J. Cell Biol., 119: 493–501, 1992. Exponentially growing cells (10^6/ml) were incubated in DMSO alone (0.1%) or treated with 100 μM each of the 16 vanadocenes (VDB, VDC, VMDC, VDI, VDA, VDCN, VDOCN, VDSCN, VDSeCN, VDT, VDCO, VDFe, VD(acac), VDH, VD(dpy), and VD(dtc) in 0.1% DMSO for 24 h. Cells were washed in PBS, fixed in 4% paraformaldehyde in PBS for 15 min on ice. Following two washings in PBS, they were permeabilized with 0.1% Triton X-100 in 0.1% sodium citrate for 2 min on ice, and washed twice in PBS. Labeling of exposed 3′-hydroxyl (3′-OH) ends of fragmented nuclear DNA was performed using TdT and fluorescein isothiocyanate (FITC)-conjugated dUTP according to the manufacturer's recommendations (Boehringer Mannheim, Indianapolis, Ind.). Cells were counterstained with 5 μg/ml PI. Control samples included: (i) untreated cells; (ii) cells incubated with the reaction mixture without the TdT enzyme. Cells were analyzed with a FACS Calibur flow cytometer (Becton Dickinson, Mountain View, Calif.). Relative DNA content (PI) was detected with band-pass filter 585/42, and dUTP incorporation (FITC) was detected with band-pass filter 530/30. Fluorescence was compensated for in the acquisition software using single-label control samples. Data were acquired in listmode, gated to 10,000 events per sample, and analyzed with the use of CELLQuest software program (Becton Dickinson). […] Vanadocene-induced apoptosis is shown by an increase in the number of cells staining with FITC-dUTP. The M1 and M2 gates were used to demarcate non-apoptotic and apoptotic PI-counterstained cell populations, respectively. TUNEL assays were performed using two testicular cell lines Tera-2 and Ntera-2 following exposure to each of the 16 vanadocenes. In other experiments, MC540 binding (as an early marker of apoptosis) and PI permeability (as a marker of advanced stage apoptosis) were simultaneously measured in human cancer cells 24 hours after exposure to vanadocenes, as previously described. Uckun, F. M., Narla, R. K., Jun, X., Zeren, T., Venkatachalam, T., Waddick, K. G., Rostostev, A., Myers, D. E. Cytotoxic activity of EGF-genstein against breast cancer cells. Clin. Cancer Res. 4:901–912, 1998. Vassilev, A., Ozer, Z., Navara, C., Mahajan, S., and Uckun, F. M. Bruton's tyrosine kinase as an inhibitor of the Fas/CD95 death-inducing signaling complex. J. Biol. Chem. 274:1646–56, 1999. Whole cells were analyzed using a FACStar Plus flow cytometer (Becton Dickinson, San Jose, Calif.). All analyses were done using 488 nm excitation from an argon laser. MC540 and PI emissions were split with a 600 nm short pass dichroic mirror and a 575 nm band pass filter was placed in front of one photomultiplier tube to measure MC540 emission and a 635 nm band pass filter was used for PI emission.

[2] = system: Tera-2 testicular cancer cells; experiment: Flow cytometric TUNEL apoptosis assay, TERA-2 cells; conditions: 24 h, TUNEL-positive nuclei
Procedure: as §1

[3] = system: 833-K testicular cancer cells; experiment: Cytotoxic activity of oxovanadium(IV) compounds, 833-K; conditions: read-out: Cytotoxic Activity 833-K
Procedure: (§2) The cytotoxicity of oxovanadium (W) complexes listed in Table 6 were tested against 9 different human cancer cell lines was performed using the MTT (3-[4,5-dimethylthiazol-2-yl]-2,5-diphenyl tetrazolium bromide) assay (Boehringer Mannheim Corp., Indianapolis, Ind.) as described previously (20). Briefly, exponentially growing tumor cells were seeded into a 96-well plate at a density of 4×10^4cells/well and incubated with medium containing the oxovanadium(IV) compounds concentrations ranging from 0.1 to 250 μM for 48 hours at 37° C. in a humidified 5% CO2 atmosphere. Triplicate wells were used for each treatment. To each well, 10 μl of MTT (0.5 mg/ml final concentration) was added and the plates were incubated at 37° C. for 4 hours to allow MTT to form formazan crystals by reacting with metabolically active cells . The formazan crystals were solubilized overnight at 37° C. in a solution containing 10% SDS in 0.01 M HCl. The absorbence of each well was measured in a microplate reader (Labsystems) at 540 nm and a reference wavelength of 690 nm. To translate the OD540 values into the number of live cells in each well, the OD540 values were compared to those on standard OD540—versus—cell number curves generated for each cell line. The percent survival was calculated using the formula: % survival=Live cell number[test]/Live cell number [control]×100. The IC50 values were calculated by non-linear regression analysis using an Graphpad Prism software version 2.0 (Graphpad Software, Inc., San Diego, Calif.).

[4] = system: HS445 Hodgkin's lymphoma cells; experiment: MTT cytotoxicity assay of oxovanadium(IV) compounds, HS445; conditions: 48 hr
Procedure: as §2

[5] = system: NALM-6 cells; experiment: In situ detection of apoptosis, confocal microscopy, NALM-6; conditions: 48 hours after treatment
Procedure: Exponentially growing cells were seeded in 6-well tissue culture plates and incubated with fresh medium containing compounds. […] The cells were fixed in 2% paraformaldehyde, washed with PBS and pelleted by centrifuging the tubes at 1000 rpm for 5 min. Cells pellets were resuspended in 50 μl of PBS, transferred to superforst plus slides and allowed to attach for 15 min. The cells were permeabilized with 0.1% triton X-100 in 0.1% citrate buffer and incubated for 1 hr at 37° C. with the reaction mixture containing terminal deoxynucleotidyl transferase (TdT) and fluorescein isothiocyanate (FITC)-conjugated dUTP. Cells were washed with PBS to remove unbound reagents and the coverslips were mounted onto slides with Vectashield containing propidium iodide (Vector Labs, Burlingame, Calif.) and slides were viewed with a confocal laser scanning microscope. […] In control reactions, the TdT enzyme was omitted from the reaction mixture.

| Compound | % Apoptosis at 100 μM NTERA-2 [1] | % Apoptosis at 100 μM TERA-2 [2] | IC50 [3] [nM] | IC50 [4] [nM] | apoptotic nuclei (FITC-dUTP / propidium iodide), NALM-6 [5] |
| --- | --- | --- | --- | --- | --- |
| [Cl-].[Cl-].[V+4].c1cc[cH-]c1.c1cc[cH-]c1 [VDC, VCp2Cl2] | 35 (34, 34) % | 88 (87, 89) % |  |  |  |
| bis(4,7-dimethyl-1,10-phenanthroline)sulfatooxovanadium(IV) [Compound 29] |  |  | 850 | 500 ± 80 | many apoptotic yellow nuclei |
